Measured values from paper PMC10069031 (European Journal of Medical Research, 2023).

Experiments:
Format in all cases: in vivo, mouse
F4/80^hi population = assay: F4/80^hi cells in MC38 tumors; settings: even at 5 mg/kg/day
Procedure: For tumors, single-cell suspensions were prepared from the fresh tumor pieces using a mouse Tumor Dissociation Kit (Miltenyi Biotec). The final cell pellets were resuspended in 1 mL FC buffer (PBS with 2 mM EDTA, 0.5% bovine serum albumin). Then, 100 µL of the tumor single-cell suspensions and the EDTA blood samples were stained by addition of the antibody cocktail and incubated for 10 min at 4 °C according to the manufacturer’s instructions. After antibody incubation, blood samples were incubated with 2–3 mL lysis buffer (0.17 M NH4Cl, 10 mM KHCO3, 0.1 mM EDTA) for 10–20 min at RT to lyse and remove red blood cells. Subsequently, samples were centrifuged at 300 g for 5 min at 4 °C and cells were washed with 2–3 mL FC buffer. Tumor samples were washed immediately after antibody incubation with 2–3 mL FC buffer without the lysis procedure and centrifuged at 300 g for 5 min at 4 °C. […] Next, 50 µL of blood and 70 µL of tumor cell suspensions were analyzed by FC using MACSQuant Analyzer 10 and MACSQuant Analyzer 16 (Miltenyi Biotec). FC data were analyzed with the FlowLogic software (Inivai Technologies distributed through Miltenyi Biotec; version 7.2.1) and gated as shown in Fig. S1 (see Additional file 2), whereby up to seven subpopulations were identified in the CD45^+ fraction using antibodies against F4/80 and CD115. […]

CCL2 [1] = assay: CCL2 ELISA in plasma, CT26 study; settings: steady-state analysis
Procedure: (§1) CT26 tumor cells were cultivated in RPMI 1640 with 2 mM L-glutamine (Gibco, Invitrogen GmbH) containing 10% fetal bovine serum (Gibco) at 37 °C and 5% CO2. Cell lines were maintained in culture for no longer than 6 months, and mycoplasma contamination was excluded by enzymatic test (MycoAlert, Lonza) prior to in vivo application. Tumor cells (2 × 10^6) were transplanted subcutaneously into 6- to 8-week-old female BALB/c mice. Control mice were subjected to sham surgery without tumor cell transplantation. Blood and tumor samples were collected from untreated control and tumor-bearing mice on days 4 and 8 (n = 3 mice/group). […] Tumor diameter was measured by caliper and body weight was determined at least twice weekly. Tumor volume was calculated using the formula 0.5 × a × b^2, where a and b are the long and short diameters of the tumor, respectively.
For tissue collection, mice were killed at predetermined time points. […] Tumors were removed, and their weights determined, then divided into three pieces, one of which was snap-frozen, one formalin fixed and paraffin embedded, and one weighed and used for FC analyses.
CCL2 was detected in plasma samples and tumor tissue using the U-Plex mouse MCP-1 ELISA Kit (Meso Scale Diagnostics) according to the manufacturer’s instructions. […] For plasma, 12.5 µL was analyzed per animal. […]

CCL2 [2] = assay: CCL2 ELISA in CT26 tumor tissue; settings: CT26 tumors
Procedure: CT26 tumor cells were cultivated in RPMI 1640 with 2 mM L-glutamine (Gibco, Invitrogen GmbH) containing 10% fetal bovine serum (Gibco) at 37 °C and 5% CO2. Cell lines were maintained in culture for no longer than 6 months, and mycoplasma contamination was excluded by enzymatic test (MycoAlert, Lonza) prior to in vivo application. Tumor cells (2 × 10^6) were transplanted subcutaneously into 6- to 8-week-old female BALB/c mice. Control mice were subjected to sham surgery without tumor cell transplantation. Blood and tumor samples were collected from untreated control and tumor-bearing mice on days 4 and 8 (n = 3 mice/group). […] For interim analysis, blood and tumor tissue were collected from each group (n = 3 mice/group) after 7 days of treatment. […] Tumor diameter was measured by caliper and body weight was determined at least twice weekly. Tumor volume was calculated using the formula 0.5 × a × b^2, where a and b are the long and short diameters of the tumor, respectively.
(§2) For tissue collection, mice were killed at predetermined time points. […] Tumors were removed, and their weights determined, then divided into three pieces, one of which was snap-frozen, one formalin fixed and paraffin embedded, and one weighed and used for FC analyses. […]

CCL2 [3] = assay: CCL2 in blood, MC38 study; settings: C57BL/6 mice with subcutaneous MC38 CRC tumors
Procedure: CCL2 was detected in plasma samples and tumor tissue using the U-Plex mouse MCP-1 ELISA Kit (Meso Scale Diagnostics) according to the manufacturer’s instructions. Measurements were performed at least in duplicate. For plasma, 12.5 µL was analyzed per animal.
Five analysis of variance (ANOVA) models were applied to analyze the log10-transformed values of the tumor weight in the CT26 study, the CCL2 levels in the tumor in the CT26 and MC38 studies, and the CCL2 levels in the PB in the CT26 and MC38 studies. The standard assumption of equal variances between treatment groups was applied for all endpoints, except for CCL2 levels in the tumor in the MC38 study, for which unequal variances between treatment groups were allowed. A negative binomial regression model was applied to evaluate percentages of CD115^hi and F4/80^hi cells within the CD45^+ cell population in PB and tumor tissue, respectively.
In vivo passaging was initiated by transplanting fragments of cryo-preserved MC38 tumors of early passages (<p5) subcutaneously into 6–8-week-old female C57BL/6 mice. Tumors were grown to a size of about 1000 mm^3, excised, cut into fragments edging approximately 2 mm, and used for further passaging in vivo for a maximum of 10 passages. Necrotic areas were removed. […]

CT26 tumors = assay: Growth of subcutaneous CT26 tumors in BALB/c mice; settings: CRC tumors in mice
Procedure: as §1, §2
An overall comparison between treatment groups of the endpoints measured on CT26 and MC38 mice after they had been killed was performed using different statistical models. […]

CNC(=O)c1cc(Oc2ccc(NC(=O)Nc3ccc(Cl)c(C(F)(F)F)c3)c(F)c2)ccn1 [REG, Regorafenib]
reduction of the F4/80^hi population vs vehicle (F4/80^hi population): more than twofold
CCL2 levels in plasma vs vehicle or untreated samples (CCL2 [1]): did not change
CCL2 concentrations in tumor lysates vs vehicle controls (CCL2 [2]): a trend toward higher levels
CCL2 levels in blood (CCL2 [3]): without affecting
partial or complete remission (CT26 tumors): did not induce partial or complete remission
tumor growth vs vehicle (CT26 tumors): significantly inhibited
